Read-outs that look alike come from different tables or passages of the source.
How the values were obtained:
bacterial infections = conditions: described in PCT/US2012/023377 (WO 2012/106364); cited from earlier work
A. baumannii strain 5711 = experiment: Growth curves (OD600) in CAMHB medium; assay type: cell-based, Acinetobacter baumannii; conditions: various concentrations, dose-responsive
Text: (§1) It should be noted that the inhibition occurred in a dose-responsive manner.

[1] = system: clinical isolates of bacterial strains of A. baumannii; experiment: MIC by CLSI microdilution in RPMI 1640 (low iron) media; assay type: cell-based, Acinetobacter baumannii; set-up: key to MIC of compound 4: NG = no growth; conditions: for MIC: Acinetobacter baumannii
Procedure: (§2) The minimal inhibitory concentration (MIC) of compound 4 was determined against standard strains of MDR bacteria and clinical isolates according to the guidelines of the Clinical and Laboratory Standards Institute (CLSI).
[…] The MIC was defined as the lowest drug concentration that caused 100% inhibition of visible bacterial growth after 24 hours incubation. Tests were performed in triplicate. MIC of Compound 4 were determined for nosocomial ESKAPE pathogens (Enterococcus faecium, Staphylococcus aureus, Klebsiella pneumoniae, Acinetobacter baumannii, Pseudomonas aeruginosa, and Enterobacter species).
(§3) Tables l and 2 show the MIC of compound 4 determined in two different media for clinical isolates of bacterial strains of A. baumannii (AB) obtained from the Multidrug-resistant Organism Repository & Surveillance Network, USA.

[2] = system: clinical isolates of bacterial strains of A. baumannii; experiment: MIC by CLSI microdilution in CAMHB media; assay type: cell-based; conditions: Acinetobacter baumannii, 24 h
Procedure: as §2
Individual MICs were determined following the microdilution method recommended by CLSI in cationic-adjusted Mueller-Hinton Broth (CAMHB), or M9 media. The MIC was defined as the lowest drug concentration that caused 100% inhibition of visible bacterial growth after 24 hours incubation. Tests were performed in triplicate. MIC of Compound 4 were determined for nosocomial ESKAPE pathogens (Enterococcus faecium, Staphylococcus aureus, Klebsiella pneumoniae, Acinetobacter baumannii, Pseudomonas aeruginosa, and Enterobacter species).
as §3

[3] = Stability in aqueous solution; assay type: physicochemical
Text: as §1

[4] = prior publications (WO 00/74664; WO 2004/041151); cited from earlier work
6-OHDA lesioned rats = conditions: cited from earlier work; for activity (neuroprotection) against 6-OHDA in an animal model of Parkinson's disease: prior publications, Ben Shachar et al. 2004
[5] = system: lactacystin-lesioned mice; conditions: 5 mg/kg once a day i.p., 7 days before or after lactacystin microinjection; Zhu et al. 2007; cited from earlier work
[6] = strain AB3638, read-out: MIC of compound 4
[7] = strain AB3785, read-out: MIC of compound 4
[8] = strain AB3806, read-out: MIC of compound 4
[9] = strain AB3917, read-out: MIC of compound 4
[10] = strain AB4025, read-out: MIC of compound 4
[11] = strain AB4026, read-out: MIC of compound 4
[12] = strain AB4027, read-out: MIC of compound 4
[13] = strain AB4052, read-out: MIC of compound 4
[14] = strain AB4269, read-out: MIC of compound 4
[15] = strain AB4448, read-out: MIC of compound 4
[16] = strain AB4456, read-out: MIC of compound 4
[17] = strain AB4490, read-out: MIC of compound 4
[18] = strain AB4498, read-out: MIC of compound 4
[19] = strain AB4795, read-out: MIC of compound 4
[20] = strain AB4857, read-out: MIC of compound 4
[21] = strain AB4878, read-out: MIC of compound 4
[22] = strain AB4932, read-out: MIC of compound 4
[23] = strain AB4957, read-out: MIC of compound 4
[24] = strain AB4991, read-out: MIC of compound 4
[25] = strain AB5001, read-out: MIC of compound 4
[26] = strain AB5075, read-out: MIC of compound 4
[27] = strain AB5197, read-out: MIC of compound 4
[28] = strain AB5256, read-out: MIC of compound 4
[29] = strain AB5674, read-out: MIC of compound 4
[30] = strain AB5711, read-out: MIC of compound 4
[31] = rats, Ben Shachar et al., Neuropharmacology 46 (2004) 254-263

OCCN1CCN(CCc2ccc(O)c3ncccc23)CC1 [Compound 4, 5-(2-(4-(2-hydroxyethyl)piperazin-1-yl)ethyl)-8-quinolinol]
antibacterial activity (bacterial infections): antibacterial activity
OD600 in growth curves (inhibition of growth) (A. baumannii strain 5711): dramatically reduced
MIC [1, 6]: 64 µg/mL
MIC [1, 7]: 32 µg/mL
MIC [1, 8]: 32 µg/mL
MIC [1, 9]: 32 µg/mL
MIC [1, 10]: 32 µg/mL
MIC [1, 11]: 32 µg/mL
MIC [1, 12]: 32 µg/mL
MIC [1, 13]: 64 µg/mL
MIC [1, 14]: 32 µg/mL
MIC [1, 15]: 64 µg/mL
MIC [1, 16]: 32 µg/mL
MIC [1, 17]: 32 µg/mL
MIC [1, 18]: 64 µg/mL
MIC [1, 19]: 32 µg/mL
MIC [1, 20]: 64 µg/mL
MIC [1, 21]: 64 µg/mL
MIC [1, 22]: 125 µg/mL
MIC [1, 23]: 125 µg/mL
MIC [1, 24]: 8 µg/mL
MIC [1, 25]: 32 µg/mL
MIC [1, 26]: 64 µg/mL
MIC [1, 27]: 32 µg/mL
MIC [1, 28]: 125 µg/mL
MIC [1, 29]: 32 µg/mL
MIC [1, 30]: 64 µg/mL
MIC of compound 4 ([1]; strain AB967): NG
MIC of compound 4 ([1]; strain AB2828): NG
MIC of compound 4 ([1]; strain AB3340): NG
MIC of compound 4 ([1]; strain AB3560): NG
MIC of compound 4 ([1]; strain AB3927): NG
MIC ([2]; strain AB967, read-out: MIC of compound 4): 500 µg/mL
MIC ([2]; strain AB2828, read-out: MIC of compound 4): 500 µg/mL
MIC ([2]; strain AB3340, read-out: MIC of compound 4): 500 µg/mL
MIC ([2]; strain AB3560, read-out: MIC of compound 4): 500 µg/mL
MIC [2, 6]: 500 µg/mL
MIC [2, 7]: 500 µg/mL
MIC [2, 8]: 1000 µg/mL
MIC [2, 9]: 500 µg/mL
MIC ([2]; strain AB3927, read-out: MIC of compound 4): 500 µg/mL
MIC [2, 10]: 500 µg/mL
MIC [2, 11]: 500 µg/mL
MIC [2, 12]: 500 µg/mL
MIC [2, 13]: 1000 µg/mL
MIC [2, 14]: 500 µg/mL
MIC [2, 15]: 500 µg/mL
MIC [2, 16]: 500 µg/mL
MIC [2, 17]: 500 µg/mL
MIC [2, 18]: 500 µg/mL
MIC [2, 19]: 500 µg/mL
MIC [2, 20]: 500 µg/mL
MIC [2, 21]: 500 µg/mL
MIC [2, 22]: 500 µg/mL
MIC [2, 23]: 500 µg/mL
MIC [2, 24]: 500 µg/mL
MIC [2, 25]: 500 µg/mL
MIC [2, 26]: 500 µg/mL
MIC [2, 27]: 500 µg/mL
MIC [2, 28]: 500 µg/mL
MIC [2, 29]: 500 µg/mL
MIC [2, 30]: 500 µg/mL
stability in aqueous solution [3]: highly stable

C#CCN(C)Cc1ccc(O)c2ncccc12 [M30]
ability to cross the BBB [4]: able to cross the BBB
activity (neuroprotection) against 6-OHDA in an animal model of Parkinson's disease (6-OHDA lesioned rats): active

OCCN1CCN(Cc2ccc(O)c3ncccc23)CC1 [VK28, 5-[4-(2-hydroxyethyl)piperazin-1-ylmethyl]-8-hydroxyquinoline]
antibacterial activity (bacterial infections): antibacterial activity
behavioral performances [5]: significantly improved
lactacystin-induced DA neuron loss in SN [5]: attenuated
lactacystin-induced iron accumulation in SN [5]: attenuated
lactacystin-induced microglial activation in SN [5]: attenuated
lactacystin-induced proteasomal inhibition in SN [5]: attenuated
ability to cross the BBB [4]: able to cross the BBB
activity (neuroprotection) against 6-OHDA in an animal model of Parkinson's disease (6-OHDA lesioned rats): active
activity (neuroprotection) against 6-OHDA in an animal model of Parkinson's disease (6-OHDA lesioned rats; listed as Vk-28): neuroprotection
basal striatal tissue monoamine concentrations (6-OHDA lesioned rats; [31]): no effect
striatal 5-HT, 5-HIAA and NE concentrations (6-OHDA lesioned rats; [31]): not be affected

— patent US20150025085A1, “Iron Chelators And Uses Thereof” (Varinel Inc., priority 2012, published 2015)
